Read-outs that look alike come from different tables or passages of the source.
Key:
[1] = molecular target: T1, rat hepatic kynureninase (Rattus norvegicus, UniProt P70712); conditions: cited from earlier work
T1 sequence (P70712 1-464): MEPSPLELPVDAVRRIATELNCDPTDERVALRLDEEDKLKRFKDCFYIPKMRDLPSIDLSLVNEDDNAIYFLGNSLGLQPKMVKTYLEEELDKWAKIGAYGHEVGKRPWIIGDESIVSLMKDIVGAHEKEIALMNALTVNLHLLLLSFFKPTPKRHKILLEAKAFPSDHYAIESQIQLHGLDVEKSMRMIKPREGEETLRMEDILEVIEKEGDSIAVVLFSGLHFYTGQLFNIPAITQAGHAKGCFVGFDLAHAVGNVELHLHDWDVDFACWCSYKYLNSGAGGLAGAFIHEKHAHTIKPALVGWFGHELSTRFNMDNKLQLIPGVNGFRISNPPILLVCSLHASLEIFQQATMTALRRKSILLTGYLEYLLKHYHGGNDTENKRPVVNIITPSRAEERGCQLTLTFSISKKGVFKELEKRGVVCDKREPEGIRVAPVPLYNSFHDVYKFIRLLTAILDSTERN

[2] = molecular target: T2, kynureninase (Pseudomonas fluorescens, UniProt P83788); conditions: as substrate of the Pseudomonas enzyme; cited from earlier work
T2 sequence (P83788 1-416): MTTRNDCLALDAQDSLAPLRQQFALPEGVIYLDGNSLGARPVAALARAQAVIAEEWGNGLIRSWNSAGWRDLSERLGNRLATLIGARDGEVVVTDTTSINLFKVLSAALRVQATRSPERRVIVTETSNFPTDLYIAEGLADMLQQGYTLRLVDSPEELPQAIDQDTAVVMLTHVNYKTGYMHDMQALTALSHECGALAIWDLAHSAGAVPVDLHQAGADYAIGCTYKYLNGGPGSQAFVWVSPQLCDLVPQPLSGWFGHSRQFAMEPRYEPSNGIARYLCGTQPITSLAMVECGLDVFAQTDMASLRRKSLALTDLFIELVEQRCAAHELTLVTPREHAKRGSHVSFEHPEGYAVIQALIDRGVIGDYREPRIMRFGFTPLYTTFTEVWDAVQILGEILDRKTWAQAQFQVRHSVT

[3] = molecular target: T2, kynureninase; assay: Inhibition / kinetics of tryptophan-induced bacterial kynureninase; format: biochemical
[4] = molecular target: T3, recombinant human kynureninase (Homo sapiens, UniProt Q16719); conditions: cited from earlier work
T3 sequence (Q16719 1-465): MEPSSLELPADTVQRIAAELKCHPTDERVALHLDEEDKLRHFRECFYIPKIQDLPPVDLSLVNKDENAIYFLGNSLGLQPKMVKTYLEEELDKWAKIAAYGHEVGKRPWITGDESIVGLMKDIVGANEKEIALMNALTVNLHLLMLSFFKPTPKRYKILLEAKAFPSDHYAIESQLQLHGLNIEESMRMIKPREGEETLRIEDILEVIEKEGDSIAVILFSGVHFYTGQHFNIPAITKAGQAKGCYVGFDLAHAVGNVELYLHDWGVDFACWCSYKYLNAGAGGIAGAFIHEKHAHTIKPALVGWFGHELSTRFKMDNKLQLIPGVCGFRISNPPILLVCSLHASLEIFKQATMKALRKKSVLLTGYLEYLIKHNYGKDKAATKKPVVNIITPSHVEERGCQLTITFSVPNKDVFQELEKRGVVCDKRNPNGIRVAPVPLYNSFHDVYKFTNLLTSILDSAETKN

[5] = molecular target: T3, recombinant human kynureninase; assay: Inhibition / kinetics of recombinant human kynureninase; format: biochemical; conditions: as substrate of the human enzyme

In the case of `Nc1ccccc1C(=O)C[C@H](N)C(=O)O` [L-kynurenine], the Km ([1]; as substrate of the rat enzyme, reported values, no reference given) is given as 500 µM and the Km [2] is given as 44.2 µM.

With `Nc1ccccc1C(=O)CCC(=O)O` [desaminokynurenine] the Ki ([3]; bacterial enzyme, unpublished results of the authors) was 12 ± 3.1 µM and the type of inhibition ([3]; bacterial kynureninase, Lineweaver-Burk and Dixon plots) was “mixed inhibitor”.

In the case of `Nc1c(O)cc(O)cc1C(=O)CCC(=O)O` [dihydroxydesamino derivative, 3,5-dihydroxydesaminokynurenine], the Ki ([1]; rat enzyme (both mammalian enzymes), earlier report) is listed as about 0.25 µM and the Ki ([4]; recombinant human enzyme (both mammalian enzymes), earlier report) is listed as about 0.25 µM.

In the case of `Nc1ccccc1C(=O)CC(N)C(=O)O` [kynurenine D-enantiomer, kynurenine], the Ki ([4]; human enzyme (by context)) is given as 12 µM.

In the case of `Nc1ccccc1C(=O)CC(N)C(=O)O` (centres unmarked) [kynurenine], the substrate activity [5] is reported as “no appreciable substrate activity”.

Source: PMC223355 (BMC Biochemistry, 2003)
